In patent publication US12234223B2, “Phthalazinone compound, and preparation method therefor and medical use thereof” (SHANGHAI JEMINCARE PHARMACEUTICALS CO., LTD, priority 2020, dated 2025):

Biological target: T1, Androgen receptor (Homo sapiens, UniProt P10275)
T1 construct: Dmax: a maximum degradation degree of AR in VCaP cells; endogenous in cells; host or cells: VCaP cells
T1 sequence (P10275 1-920): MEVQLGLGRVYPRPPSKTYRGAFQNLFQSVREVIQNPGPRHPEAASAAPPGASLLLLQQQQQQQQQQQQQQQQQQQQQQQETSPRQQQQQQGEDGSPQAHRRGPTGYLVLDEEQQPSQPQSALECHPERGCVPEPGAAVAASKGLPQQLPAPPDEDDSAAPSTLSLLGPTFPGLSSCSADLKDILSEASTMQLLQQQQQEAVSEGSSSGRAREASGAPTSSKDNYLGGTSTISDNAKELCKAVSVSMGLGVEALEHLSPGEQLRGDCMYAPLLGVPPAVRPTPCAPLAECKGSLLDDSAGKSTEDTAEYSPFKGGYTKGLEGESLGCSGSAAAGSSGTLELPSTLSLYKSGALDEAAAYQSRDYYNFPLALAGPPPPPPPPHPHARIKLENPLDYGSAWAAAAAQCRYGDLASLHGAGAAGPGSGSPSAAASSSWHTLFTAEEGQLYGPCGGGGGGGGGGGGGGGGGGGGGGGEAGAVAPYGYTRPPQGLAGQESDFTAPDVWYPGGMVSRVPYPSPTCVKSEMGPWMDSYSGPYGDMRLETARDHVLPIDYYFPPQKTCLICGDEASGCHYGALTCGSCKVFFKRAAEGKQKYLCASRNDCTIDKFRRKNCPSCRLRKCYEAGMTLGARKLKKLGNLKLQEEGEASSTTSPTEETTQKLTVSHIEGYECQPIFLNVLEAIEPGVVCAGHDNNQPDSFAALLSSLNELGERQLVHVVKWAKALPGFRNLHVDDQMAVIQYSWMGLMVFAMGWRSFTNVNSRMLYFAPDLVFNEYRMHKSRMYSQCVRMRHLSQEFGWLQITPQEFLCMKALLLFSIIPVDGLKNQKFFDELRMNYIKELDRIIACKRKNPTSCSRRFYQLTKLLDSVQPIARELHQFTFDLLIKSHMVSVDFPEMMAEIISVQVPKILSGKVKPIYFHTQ
Assay: Androgen receptor In-Cell-Western assay (AR degradation in VCaP cells)
Type: cell-based
Conditions: 24 hours treatment; for DC50: concentration for half the maximum degradation degree of AR in VCaP cells; for Dmax: maximum degradation degree of AR in VCaP cells
Experimental: This assay evaluated compound performance in VCap cells. An intracellular androgen receptor was assayed by In-Cell-Western according to the assay procedure described below.
In a 96-well cell culture plate (Corning 3599) pretreated by poly-D-Lysin, Vcap cells were seeded to a Vcap cell assay medium [phenol red containing DMEM (Gibco Cat. No.: 11995065); fetal bovine serum FBS (Gibco Cat. No.: 10099141C)] at a volume of 100 μL/well and a cell density of 50,000 cells/well. Cells were cultured for at least two days. • 1. First, cells were treated with a compound. The compound was subjected to a gradient dilution by using DMSO and a cell culture medium, so that DMSO contained in the cell culture plate was diluted to 0.5%: a polypropylene plate was used according to the following protocol: • (1) (i) A 200× stock solution plate was prepared in DMSO; (ii) a 10 mM stock solution was diluted at 1:4 (10 μL stock solution+40 μL DMSO=2000 uM) with DMSO to enter row 2; (iii) a 1:4 (10 μL protac+40 μL DMSO) gradient dilution was performed from row 2 to row 9, row 1 was reserved for a 2000 uM reference compound and row 10 was reserved for DMSO. (iv) There were 8 concentrations (the final concentrations on the 200× plate was 2000 uM, 400 uM, 80 uM, etc.) in total. (2) (i) A 3× stock solution was prepared in the medium; (ii) 3 μL of the 200× stock solution was transferred to 197 μL of the medium (by a 12-channel pipette, from row 1 to row 10), i.e. a 3× stock solution plate. (iii) Uniform mixing was performed for the stock solution plate. (3) (i) The medium of Vcap cells was replaced with a fresh medium, with the medium volume of 100 μL. (ii) The uniformly-mixed 3× stock solution was transferred to the cell culture plate (by the 12-channel pipette, 50 μL of the stock solution was transferred from row 1 to row 10). (iii) The cells were cultured for 24 hours. • 2. The expression level of the intracellular androgen receptor after compound treatment was detected, and assay was performed according to the following method. • (1) (i) An equal volume of 8% paraformaldehyde was added to the cell culture plate for cell fixation. A fixative solution in the cell plate was discarded, and the cell plate was washed three times with PBS. (ii) A Triton solution was prepared (the stock solution was diluted at 1:1000). The solution in the cell plate was discarded, and a volume of 200 μL of a Triton diluent was added to each well. (iii) A 2× blocking solution was prepared (a 10× blocking stock solution was diluted at 1:4). The solution in the cell plate was discarded, and a volume of 100 μL of the 2× blocking solution was added to each well. (iv) A primary antibody solution (Androgen receptor Rabbit mAb, Cell Signaling Technology Cat. No.: 5153; 1:1000 dilution) was prepared. The solution in the cell plate was discarded, a volume of 100 μL of a primary antibody diluent was added to each well, and incubation was performed at 4 degrees overnight. (v) The primary antibody solution was discarded, and the cell plate was washed with 1× Wash buffer (Wash buffer in the present application means a washing buffer solution). (vi) A secondary antibody solution (Goat anti Rabbit IgG (H+L) Secondary Antibody, HRP, Thermo Cat. No.: 31460; 1:5000 dilution) was prepared, and a volume of 100 μL of a secondary antibody diluent was added to each well for incubation. (vii) The secondary antibody solution in the cell plate was discarded, and the cell plate was washed with 1× Wash buffer. (viii) A TMB chromogenic solution (BD Cat. No.: 550534) was prepared, and a volume of 100 μL of the chromogenic solution was added to each well. (ix) A volume of 50 μL of a stop solution (BD Cat. No.: 550534) was added to each well. (x) Absorption values at OD 450 nm and 570 nm were read by EnVision. (2) (i) Normalized analysis was performed for the number of cells in each well. The solution in the cell plate was discarded, and the cell plate was washed three times with wash buffer. […]

SMILES | DC50 [nM] | Dmax [%]
CC1(C)[C@H](NC(=O)c2ccc(N3CCC(CN4CCN(c5ccc6c(=O)n(C7CCC(=O)NC7=O)nc(F)c6c5)CC4)CC3)cc2)C(C)(C)[C@H]1Oc1ccc(C#N)c(Cl)c1 (stereo partly drawn) [Compound 29] | 8.9 | 169
CC1(C)[C@H](NC(=O)c2ccc(N3CCC(CN4CCN(c5ccc6c(=O)n(C7CCC(=O)NC7=O)ncc6c5)CC4)CC3)cc2)C(C)(C)[C@H]1Oc1ccc(C#N)c(Cl)c1 (stereo partly drawn) [Compound 1] | 10 | 97
CC1(C)[C@H](NC(=O)c2ccc(N3CCC(CN4CCN(c5ccc6c(=O)n([C@H]7CCC(=O)NC7=O)ncc6c5)CC4)CC3)cc2)C(C)(C)[C@H]1Oc1ccc(C#N)c(Cl)c1 [Compound 28A] | 2.7 | 126
